Reference: PubChem BioAssay (NCI)
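Compound exposure: 48 hours, 5 concentrations, 96-well plates. GI50 = concentration required for 50% inhibition of growth. TGI denotes the concentration required for complete inhibition of growth.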

Tests used:
Assay in all cases: NCI tumour cell line growth inhibition, 48 h
BT-549 breast = tested on: BT-549 breast
HS 578T breast = tested on: HS 578T breast
MALME-3M melanoma = tested on: MALME-3M melanoma
SK-MEL-28 melanoma = tested on: SK-MEL-28 melanoma
SK-MEL-5 melanoma = tested on: SK-MEL-5 melanoma
TK-10 renal = tested on: TK-10 renal
UO-31 renal = tested on: UO-31 renal
HCC-2998 colon = tested on: HCC-2998 colon

SMILES | TGI (BT-549 breast) [µM] | TGI (HS 578T breast) [µM] | TGI (MALME-3M melanoma) [µM] | TGI (SK-MEL-28 melanoma) [µM] | TGI (SK-MEL-5 melanoma) [µM] | TGI (TK-10 renal) [µM] | TGI (UO-31 renal) [µM] | GI50 (BT-549 breast) [µM] | GI50 (HCC-2998 colon) [µM] | TGI (HCC-2998 colon) [µM] | GI50 (HS 578T breast) [µM] | GI50 (MALME-3M melanoma) [µM] | GI50 (SK-MEL-28 melanoma) [µM] | GI50 (SK-MEL-5 melanoma) [µM] | GI50 (TK-10 renal) [µM] | GI50 (UO-31 renal) [µM]
CSC(SC)(C(=O)O)c1cc(-c2c(Cl)cccc2Cl)no1 | > 100 | > 100 | > 100 | > 100 | 85.8 | > 100 | 92.2 |  |  |  |  |  |  |  |  | 
Cc1cn(C2CC(OC(=O)c3ccc(Cl)cc3)C(COC(=O)c3ccc(Cl)cc3)O2)c(=O)[nH]c1=O (centres undefined) | > 100 | > 100 | > 100 | > 100 | > 100 | > 100 | > 100 |  |  |  |  |  |  |  |  | 
CC1(C)N=C(N)N=C(N)N1c1ccc(CCC(=O)Nc2ccc(S(=O)(=O)F)cc2)c(Cl)c1 | > 100 | > 100 | > 100 | > 100 | > 100 | > 100 | > 100 | 0.995 | 0.997 | > 100 | > 84.7 | 19.9 | 22.8 | 0.591 | 0.604 | 63.6
CN(C)C/C=C/C(=O)Nc1ccc(C(=O)N[C@@]2(C)CCC[C@@H](Nc3ncc(Cl)c(-c4c[nH]c5ccccc45)n3)C2)nc1 | 0.155 | 0.0877 |  | 0.118 | 0.779 | 1.11 | 0.718 | 0.036 | < 0.01 | 0.164 | 0.022 |  | < 0.01 | 0.0221 | 0.0153 | 0.0557
COc1cc(C2c3cc4c(cc3OC(C)(N3CCCC3)C2C)OCO4)cc(OC)c1OC (centres undefined) | 12.2 | 0.721 | > 55.2 | > 100 | 1.58 | > 67.1 | 57 |  |  | 2.57 |  |  |  |  |  | 
Cc1cn(-c2cc(NC(=O)c3cccc(C#Cc4cccc5[nH]nc(N)c45)c3)cc(C(F)(F)F)c2)cn1 | 80.4 | 42.2 | 10.9 | 25.7 | 21.7 | 60.4 | 26.5 | 5.21 | 3.17 | > 100 | 2.86 | 1.81 | 2.62 | 4.66 | 17.8 | 2.79
Cc1cc(Cl)ccc1OCC(=O)Nc1nc2c(Cl)cccc2s1 | > 100 | > 100 | > 100 | > 100 | > 100 | > 100 | > 100 | > 100 | > 100 | > 100 | > 100 | > 100 | > 100 | > 100 | 61.3 | > 100
COCCOC(=O)C1=C(O)c2ccccc2S(=O)(=O)N1C |  | > 100 | > 100 | > 100 | > 100 | > 100 | > 100 |  |  | > 100 |  |  |  |  |  | 
COc1cccc2c1C(=N)c1c(O)c3c(c(O)c1C2=O)C[C@@](O)(C(C)=O)C[C@@H]3O[C@H]1C[C@H](N)[C@H](O)[C@H](C)O1 | 4.58 | 8.31 | 3.24 | 13.9 | 2.17 | 3.19 | 19.9 | 0.813 | 0.474 | 2.51 | 1.66 | 0.391 | 2.58 | 0.523 |  | 2.24
C=C(C)[C@@H]1CC[C@]2(COCCCN)CC[C@]3(C)[C@H](CC[C@@H]4[C@@](C)(CCCNCCCN)[C@H](C(=C)C)CC[C@]43C)[C@@H]12 | 29.6 | 5.54 | 3.12 | 3.14 | 3.27 | 3.15 | 2.77 | 10.6 |  |  | 2.16 | 1.66 | 1.72 | 1.81 | 1.68 | 1.43
CC(C)(C)c1cc([N+](=O)[O-])cc([N+](=O)[O-])c1O |  | > 10 |  | > 10 | > 10 | > 10 | > 10 |  |  | > 10 |  |  |  |  |  | 
CCCOC(=O)N[C@H]1CCc2c(Cl)c(OC)c(OC)c(OC)c2-c2ccc(SC)c(=O)cc21 | 6.01 | 20.6 | 17.1 | 23.5 | 0.0207 | > 88.4 | 27.9 | < 0.01 | < 0.0112 | 0.7 | < 0.01 | < 0.01 | 2.02 | < 0.01 | 5.04 | 0.0747
CCN1CCCc2cc3c(C(F)(F)F)cc(=O)oc3cc21 | > 100 |  |  | > 100 | 72.3 | > 100 | > 100 |  |  | > 100 |  |  |  |  |  | 
CN(c1ccc(NC(=O)Nc2c(Cl)cccc2Cl)cc1)c1ccnc(Nc2cccc(CS(C)(=O)=O)c2)n1 | 8.15 | > 17.6 | > 14.4 | 9.47 | 7.09 | 9.02 | 13.3 | 3.3 | 4.78 | 16.8 | 4.35 | 1.53 | 3.56 | 2.79 | 3.98 | 4.28
COc1ccc([C@@]2(O)c3c(ccc(O)c3OC)[C@H]2OC)c(OC)c1 |  |  | > 100 | > 100 | > 100 | > 100 | > 100 |  |  | > 100 |  |  |  |  |  | 
C=C(C)C1CC2(C)C(C)CC(O)CC2C(OC(=O)C=C(C)C)C1O (centres undefined) | > 100 | > 100 | > 100 | > 100 | 49.2 | > 100 | 74.4 |  |  | > 100 |  |  |  |  |  | 
CNC(=O)OCc1c(COC(=O)NC)c(-c2ccc(-c3ccccc3)cc2)n(C)c1C | 7.11 | > 68.2 | 10.6 | 28.7 | 14 | 15.4 | 3.1 |  |  | 13.1 |  |  |  |  |  | 
CCN1C(=O)/C(=C/c2c(Cl)[nH]c3cc(C)c(OC)cc23)c2ccccc21 | 6.31 | 7.23 | 70.6 | > 100 | 8.19 | 75.6 | > 100 | 0.5 | 2.4 | 7.15 | 2.86 | 14.9 | 49.3 | 2.99 | 16.5 | 2.87
CCCCCCCCn1ccc2cc(NC(=O)Cn3cc(CN4CCCCCC4)nn3)ccc21 | 3.32 | 4.16 | 3.2 | 3.3 | 3.13 | 3.06 | 2.81 | 1.72 | 1.78 | 3.35 | 1.91 | 1.67 | 1.82 | 1.74 | 1.63 | 1.48

SMILES | TGI (BT-549 breast) [µM] | TGI (HS 578T breast) [µM] | TGI (MALME-3M melanoma) [µM] | TGI (SK-MEL-28 melanoma) [µM] | TGI (SK-MEL-5 melanoma) [µM] | TGI (TK-10 renal) [µM] | TGI (UO-31 renal) [µM] | GI50 (BT-549 breast) [µM] | GI50 (HCC-2998 colon) [µM] | TGI (HCC-2998 colon) [µM] | GI50 (HS 578T breast) [µM] | GI50 (MALME-3M melanoma) [µM] | GI50 (SK-MEL-28 melanoma) [µM] | GI50 (SK-MEL-5 melanoma) [µM] | GI50 (TK-10 renal) [µM] | GI50 (UO-31 renal) [µM]
Cc1ccc(C2=C(c3ccc(C)cc3)C3(c4ccc(C)cc4)C4C(=O)OC(=O)C4C2(c2ccc(C)cc2)S3=O)cc1 (centres undefined) | > 100 | > 100 | 84 | 96.1 | 57.6 | > 100 | > 100 | 23.9 | 21.5 | 55.5 | 21.3 | 27.9 | 28.8 | 21.3 | 38.8 | 34.3
COc1ccc2c(c1)C(=O)CCc1cc(OC)c(OC)c(OC)c1-2 |  | 0.0576 |  | > 100 |  | > 100 | > 100 |  | < 0.01 |  |  |  | 24.8 |  |  | < 0.01
[N-]=[N+]=NCCCn1c2c(c3ccc([N+](=O)[O-])cc3c1=O)C(=O)c1ccccc1-2 | > 100 |  |  | > 100 | 9.31 | > 100 | > 100 | 27.4 |  |  |  |  | > 100 | 2.39 | 99.2 | > 100
Cc1ccc(S(=O)(=O)N=Nc2c(O)[nH]c3cc(O)c(C(=O)O)cc23)cc1 | > 100 | > 100 | > 100 | > 100 | > 100 | > 100 | > 100 |  |  | > 100 |  |  |  |  |  | 
O=NNc1ccc2ccccc2n1 | > 100 | > 100 |  | > 100 | > 100 | > 100 | > 100 |  |  |  |  |  |  |  |  | 
O=C1C(=O)c2ccccc2C(O)=C1C(C1=C(O)c2ccccc2C(=O)C1=O)c1ccc(Cl)cc1 | 32.7 | 66.4 | 12 | 55.5 | 19.9 | 28.2 | 24.5 |  |  |  |  |  |  |  |  | 
CCN(CC)CCNC(Cc1ccccc1)c1ccc(OCc2ccccc2)cc1 (centres undefined) | 18.7 | 23.8 |  | 4.03 | 4.46 |  | 14.7 | 3.55 | 5.17 | 17.4 | 4.32 |  | 1.85 | 1.97 |  | 2.53
CC(C)CNc1nc(-c2ccccc2Cl)nc2ccccc12 |  | 37.3 | 25.9 | 40.7 | 29.8 | 29.6 | 49.2 |  | 19.8 | 35.9 | 18 | 12.4 | 20.8 | 16.2 | 15.8 | 17.1
CC/C=C\C[C@H]1CC=C2C(=O)C=C[C@@H]2CC=CCCCC(=O)O[C@@H](CCCCC)CC=C2C(=O)C=C[C@@H]2CC=CCCCC(=O)O[C@@H](CCCCC)CC=C2C(=O)C=C[C@@H]2CC=CCCCC(=O)O[C@@H](CCCCC)CC=C2C(=O)C=C[C@@H]2CC=CCCCC(=O)O1 | 5.21 | > 7.9 | > 7.9 | 6.3 | 4.5 | > 7.9 | 2.84 | 1.78 | 1.86 | 4.07 | 2.68 | 2.77 | 1.99 | 1.85 | 3 | 1.41
Nc1ncc(-c2cnn(C3CCNCC3)c2)cc1-c1nc2cc(Cl)ccc2o1 | 3.14 | 1.77 | 3.37 | 2.68 | 3.08 | 3.58 | 1.02 | 1.61 | 1.47 | 2.82 | 0.385 | 1.71 | 1.3 | 1.66 | 1.94 | 0.484
NC(CSC(c1ccccc1)(c1ccccc1)c1ccccc1)C(=O)NCC(=O)O (centres undefined) | > 100 | 25.1 | > 100 | > 100 | 31.4 |  | > 100 | 10.1 | 2.57 | 22.2 | 3.29 | 5.3 | 8.19 | 3.4 |  | 31.3
O=C(O)CSCCc1ccccc1 | > 100 | > 100 | > 100 | > 100 | > 100 | > 100 | > 100 |  |  |  |  |  |  |  |  | 
O=C1NC(=S)S/C1=C/c1ccc2c(c1)OCO2 |  | > 100 | > 100 | > 100 | > 100 | > 100 | > 100 |  | > 100 | > 100 | 36.8 | 23 | > 100 | > 100 | > 100 | 5.8
O=C(O)CCCc1ccc2ccc3ccccc3c2c1 | > 100 | > 100 | > 100 | > 100 | > 100 | > 100 | > 100 |  |  |  |  |  |  |  |  | 
CN(C)Cc1cc(C(F)(F)F)ccc1C(O)(c1ccccc1)c1ccccc1 |  | > 100 | 33.9 | 31 | 27.3 | 31 | 28.5 |  |  |  |  |  |  |  |  | 
CC(=O)OC1OC([C@H]2c3cccc(O)c3C(=O)c3c(O)cc(C)cc32)C(O)C(O)C1O (some centres undefined) | 1.03 | 0.728 |  | > 23.2 |  | 1.75 |  | 0.356 | < 0.01 |  |  |  | 0.191 |  | 0.254 | 0.138
COc1ccc2c(c1)OC1=C(C(=O)OC1)C2c1cc(OC)c2c(c1)OCCO2 (centres undefined) | 28.8 | > 100 |  | > 100 | 0.535 | > 100 | > 100 | 0.131 | 0.0781 |  | 0.0361 |  | 0.0517 | 0.0347 | 1.54 | 0.071
O=C1C=CC(=O)C2C1C1(Cl)C(Cl)=C(Cl)C2(Cl)C1(Cl)Cl (centres undefined) |  | 7.92 | 15.8 | 21.8 | 19.4 | 81 | 16.1 |  | 6.45 | 20.4 | 2.51 | 3.23 | 9.63 | 6.61 | 8.07 | 3.41
